SMILES strings stand for the structures.

In this assay the test system is HCV genotype 1b replicon. Briefly: HCV replicon assay (1b_Huh-Luc/Neo-ET cell line, luciferase readout). The format is cell-based. The conditions noted are these: Hepatitis C virus, Huh-7, 72 h, read-out: Inhibition of HCV genotype 1b. The procedure, abridged: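 Luciferase activity (Bright-Glo) after 72 h compound exposure, in triplicate, measured replicon levels in Huh 7-derived 1b_Huh-Luc/Neo-ET cells. EC50 was fitted from percent-of-control values and determined in repeat runs.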
On to `COC(=O)N[C@@H](C(=O)N1CCCC[C@H]1c1ncc(-c2ccc(-c3nc4ccc(-c5cnc([C@@H]6CCCCN6C(=O)[C@H](NC(=O)OC)c6ccccc6)[nH]5)cc4s3)cc2)[nH]1)c1ccccc1` [compound 248], for which the EC50 is below 1 nM.
With `COC(=O)N[C@H](C(=O)N1CCC[C@H]1c1ncc(-c2ccc(-c3nc4ccc(-c5cnc([C@@H]6CCCN6C(=O)[C@H](NC(=O)OC)c6ccccc6)[nH]5)cc4o3)cc2)[nH]1)C(C)C` [compound 249] the figure was below 1 nM; with `CC(C)(C)OC(=O)N1CCCC1c1ncc(-c2ccc(-c3nc4cc(-c5cnc([C@@H]6CCCN6C(=O)OCc6ccccc6)[nH]5)ccc4s3)cc2)[nH]1` (stereo partly shown) [compound 250], 10 to 999 nM; with `CNC(=O)N[C@@H](C(=O)N1CCC[C@H]1c1ncc(-c2ccc3nc(-c4ccc(-c5cnc([C@@H]6CCCN6C(=O)[C@@H](NC(=O)OC)C(C)C)[nH]5)cc4)oc3c2)[nH]1)c1ccccc1` [compound 251], below 1 nM.
To `CCNC(=O)N[C@@H](C(=O)N1CCC[C@H]1c1ncc(-c2ccc3nc(-c4ccc(-c5cnc([C@@H]6CCCN6C(=O)[C@@H](NC(=O)OC)C(C)C)[nH]5)cc4)oc3c2)[nH]1)c1ccccc1` [compound 252] belongs below 1 nM; to `COC(=O)N[C@H](C(=O)N1CCC[C@H]1c1ncc(-c2ccc(-c3nc4ccc(-c5cnc([C@@H]6CCCN6C(=O)[C@@H](NC(=O)OC)[C@@H](C)OC)[nH]5)cc4o3)cc2)[nH]1)C(C)C` [compound 253], below 1 nM; to `COC(=O)N[C@H](C(=O)N1CCC[C@H]1c1ncc(-c2ccc3nc(-c4ccc(-c5cnc([C@@H]6CCCN6C(=O)[C@H](NC(=O)OC(C)(C)C)c6ccccc6)[nH]5)cc4)oc3c2)[nH]1)C(C)C` [compound 254], below 1 nM.
With `COC(=O)N[C@H](C(=O)N1CCC[C@H]1c1ncc(-c2ccc3nc(-c4ccc(-c5cnc([C@@H]6CCCN6C(=O)[C@H](NC(=O)OC)c6ccccc6)[nH]5)cc4)oc3c2)[nH]1)C(C)C` [compound 255] the figure was below 1 nM; with `CNC(=O)N[C@@H](C(=O)N1CCC[C@H]1c1ncc(-c2ccc(-c3nc4ccc(-c5cnc([C@@H]6CCCN6C(=O)[C@@H](NC(=O)OC)C(C)C)[nH]5)cc4o3)cc2)[nH]1)c1ccccc1` [compound 256], below 1 nM; with `CCNC(=O)N[C@@H](C(=O)N1CCC[C@H]1c1ncc(-c2ccc(-c3nc4ccc(-c5cnc([C@@H]6CCCN6C(=O)[C@@H](NC(=O)OC)C(C)C)[nH]5)cc4o3)cc2)[nH]1)c1ccccc1` [compound 257], below 1 nM.
Turning to `COC(=O)N[C@H](C(=O)N1CCC[C@H]1c1ncc(-c2ccc(-c3ccc4nc(-c5cnc([C@@H]6CCCN6C(=O)[C@@H](NC(=O)OC)C(C)C)[nH]5)sc4c3)cc2)[nH]1)C(C)C` [compound 258], the EC50 is below 1 nM.
To `COC(=O)N[C@H](C(=O)N1CCC[C@H]1c1ncc(-c2ccc3oc(-c4ccc(-c5cnc([C@@H]6CCCN6C(=O)[C@@H](NC(=O)OC)C6CCOCC6)[nH]5)cc4)nc3c2)[nH]1)C(C)C` [compound 259] belongs below 1 nM; to `COC(=O)N[C@H](C(=O)N1CCC[C@H]1c1ncc(-c2ccc3oc(-c4ccc(-c5cnc([C@@H]6CCCN6C(=O)[C@H](NC(=O)OC)c6ccccc6)[nH]5)cc4)nc3c2)[nH]1)C(C)C` [compound 260], below 1 nM.
Take `COC(=O)N[C@H](C(=O)N1CCC[C@H]1c1ncc(-c2ccc3ccc(C45CCC(c6cnc([C@@H]7CCCN7C(=O)[C@@H](NC(=O)OC)C(C)C)[nH]6)(CC4)CC5)cc3c2)[nH]1)C(C)C` [compound 261]: the EC50 was in the range of 1 to 9.9 nM.
To `COC(=O)N[C@H](C(=O)N1CCC[C@H]1c1nc(-c2ccc3nc(C45CCC(c6cnc([C@@H]7CCCN7C(=O)[C@@H](NC(=O)OC)C(C)C)[nH]6)(CC4)CC5)ccc3c2)c[nH]1)C(C)C` [compound 262] belongs below 1 nM.
To `COC(=O)N[C@@H](C(=O)N1CCC[C@H]1c1nc(-c2ccc3nc(C45CCC(c6cnc([C@@H]7CCCN7C(=O)[C@H](NC(=O)OC)c7ccccc7)[nH]6)(CC4)CC5)ccc3c2)c[nH]1)c1ccccc1` [compound 263] belongs below 1 nM.
As to `CN(C)[C@@H](C(=O)N1CCC[C@H]1c1nc(-c2ccc3nc(C45CCC(c6cnc([C@@H]7CCCN7C(=O)[C@@H](c7ccccc7)N(C)C)[nH]6)(CC4)CC5)ccc3c2)c[nH]1)c1ccccc1` [compound 264], the EC50 lay in the range of 1 to 9.9 nM.
To `COC(=O)N[C@H](C(=O)N1CCC[C@H]1c1nc(-c2ccc3nc(C45CCC(c6cnc([C@@H]7CCCN7C(=O)[C@@H](NC(=O)OC)C7CC7)[nH]6)(CC4)CC5)ccc3c2)c[nH]1)C1CC1` [compound 265] belongs below 1 nM; to `COC(=O)N[C@@H](C)C(=O)N1CCC[C@H]1c1nc(-c2ccc3nc(C45CCC(c6cnc([C@@H]7CCCN7C(=O)[C@H](C)NC(=O)OC)[nH]6)(CC4)CC5)ccc3c2)c[nH]1` [compound 266], below 1 nM.
Take `c1cc2nc(C34CCC(c5cnc([C@@H]6CCCN6)[nH]5)(CC3)CC4)ccc2cc1-c1c[nH]c([C@@H]2CCCN2)n1` [compound 267]: the EC50 is above 1000 nM.
To `CC(C)(C)OC(=O)N1CCCC1c1ncc(C23CCC(c4ccc5cc(-c6c[nH]c([C@@H]7CCCN7C(=O)OC(C)(C)C)n6)ccc5n4)(CC2)CC3)[nH]1` (stereo partly shown) [compound 268] belongs 10 to 999 nM.
With `COC(=O)N[C@H](C(=O)N1CCC[C@H]1c1nc(-c2ccc3c(c2)CCN(c2c(F)cc(-c4cnc([C@@H]5CCCN5C(=O)[C@@H](NC(=O)OC)C(C)C)[nH]4)cc2F)C3)c[nH]1)C(C)C` [compound 269] the figure was below 1 nM; with `COC(=O)N[C@@H](C(=O)N1CCC[C@H]1c1nc(-c2ccc3c(c2)CCN(c2c(F)cc(-c4cnc([C@@H]5CCCN5C(=O)[C@H](NC(=O)OC)c5ccccc5)[nH]4)cc2F)C3)c[nH]1)c1ccccc1` [compound 270], below 1 nM.
To `COC(=O)N[C@H](C(=O)N1CCC[C@H]1c1nc(-c2ccc3c(c2)CCN(c2c(F)cc(-c4cnc([C@@H]5CCCN5C(=O)[C@@H](NC(=O)OC)C5CC5)[nH]4)cc2F)C3)c[nH]1)C1CC1` [compound 271] belongs below 1 nM; to `COC(=O)N[C@@H](C)C(=O)N1CCC[C@H]1c1nc(-c2ccc3c(c2)CCN(c2c(F)cc(-c4cnc([C@@H]5CCCN5C(=O)[C@H](C)NC(=O)OC)[nH]4)cc2F)C3)c[nH]1` [compound 272], below 1 nM; to `COC(=O)N[C@@H](C)C(=O)N1CCC[C@H]1c1nc(-c2ccc3nc(N4CCC(c5cnc([C@@H]6CCCN6C(=O)[C@H](C)NC(=O)OC)[nH]5)CC4)ccc3c2)c[nH]1` [compound 273], 1 to 9.9 nM.
`COC(=O)N[C@H](C(=O)N1CCC[C@H]1c1nc(-c2ccc3nc(N4CCC(c5cnc([C@@H]6CCCN6C(=O)[C@@H](NC(=O)OC)C6CC6)[nH]5)CC4)ccc3c2)c[nH]1)C1CC1` [compound 274]: the EC50 is 1 to 9.9 nM.
For the compound `COC(=O)N[C@H](C(=O)N1CCC[C@H]1c1nc(-c2ccc3nc(N4CCC(c5cnc([C@@H]6CCCN6C(=O)[C@@H](NC(=O)OC)C(C)C)[nH]5)CC4)ccc3c2)c[nH]1)C(C)C` [compound 275], the EC50 was below 1 nM.
With `COC(=O)N[C@H](C(=O)N1CCC[C@H]1c1nc2ccc(-c3ccc4cc(-c5ccc6nc([C@@H]7CCCN7C(=O)[C@@H](NC(=O)OC)C(C)C)[nH]c6c5)ccc4c3)cc2[nH]1)C(C)C` [compound 276] the figure was below 1 nM; with `COC(=O)N[C@H](C(=O)N1CCC[C@H]1c1nc2ccc(-c3cccc4c(-c5ccc6nc([C@@H]7CCCN7C(=O)[C@@H](NC(=O)OC)C(C)C)[nH]c6c5)cccc34)cc2[nH]1)C(C)C` [compound 277], below 1 nM; with `COC(=O)N[C@@H](C)C(=O)N1CCC[C@H]1c1nc2ccc(-c3ccc4cc(-c5ccc6nc([C@@H]7CCCN7C(=O)[C@H](C)NC(=O)OC)[nH]c6c5)ccc4c3)cc2[nH]1` [compound 278], below 1 nM.
With `COC(=O)N[C@H](C(=O)N1CCC[C@H]1c1nc2ccc(-c3ccc4cc(-c5ccc6nc([C@@H]7CCCN7C(=O)[C@@H](NC(=O)OC)C7CCOCC7)[nH]c6c5)ccc4c3)cc2[nH]1)C1CCOCC1` [compound 279] the figure was below 1 nM; with `COC(=O)N[C@H](C(=O)N1CCC[C@H]1c1nc2ccc(-c3ccc4nc(-c5ccc6nc([C@@H]7CCCN7C(=O)[C@@H](NC(=O)OC)C(C)C)[nH]c6c5)ccc4c3)cc2[nH]1)C(C)C` [compound 280], below 1 nM; with `COC(=O)N[C@H](C(=O)N1CCC[C@H]1c1nc2ccc(-c3ccc4cc(-c5ccc6nc([C@@H]7CCCN7C(=O)[C@@H](NC(=O)OC)C(C)C)[nH]c6c5)ncc4c3)cc2[nH]1)C(C)C` [compound 281], below 1 nM.
As for `COC(=O)N[C@H](C(=O)N1CCC[C@H]1c1nc2ccc(-c3ccc4cc(-c5ccc6nc([C@@H]7CCCN7C(=O)[C@@H](NC(=O)OC)C7CCOCC7)[nH]c6c5)ccc4c3)cc2[nH]1)C(C)C` [compound 282], the EC50 is below 1 nM.
With `COC(=O)N[C@H](C(=O)N1CCC[C@H]1c1nc2ccc(-c3ccc4cc(-c5ccc6nc([C@@H]7CCCN7C(=O)[C@H](NC(=O)OC)c7ccccc7)[nH]c6c5)ccc4c3)cc2[nH]1)C(C)C` [compound 283] the figure was below 1 nM; with `COC(=O)N[C@@H](C(=O)N1CCC[C@H]1c1nc(-c2ccc3nc(C4CCC(c5cnc([C@@H]6CCCN6C(=O)[C@H](NC(=O)OC)c6ccccc6)[nH]5)CC4)ccc3c2)c[nH]1)c1ccccc1` (stereo partly shown) [compound 286], below 1 nM; with `COC(=O)N[C@H](C(=O)N1CCC[C@H]1c1nc(-c2ccc3c(=O)n(-c4ccc(-c5cnc([C@@H]6CCCN6C(=O)[C@@H](NC(=O)OC)C(C)C)[nH]5)cc4)ccc3c2)c[nH]1)C(C)C` [compound 287], below 1 nM.
`COC(=O)N[C@@H](C(=O)N1CCC[C@H]1c1nc(-c2ccc3c(=O)n(-c4ccc(-c5cnc([C@@H]6CCCN6C(=O)[C@H](NC(=O)OC)c6ccccc6)[nH]5)cc4)ccc3c2)c[nH]1)c1ccccc1` [compound 288]: the EC50 is below 1 nM.
With `COC(=O)N[C@@H](C(=O)N1CCC[C@H]1c1nc(-c2ccc3c(c2)CCN(c2ccc(-c4cnc([C@@H]5CCCN5C(=O)[C@H](NC(=O)OC)c5ccccc5)[nH]4)cc2)C3=O)c[nH]1)c1ccccc1` [compound 289] the figure was below 1 nM.

The values above are taken from patent US8618151B2, “Inhibitors of HCV NS5A” (Presidio Pharmaceuticals, Inc., priority 2008, dated 2013).
